Consider 22 compounds from patent publication EP1285918A1, “C7 Ester substituted taxanes as antitumor agents” (Florida State University Research Foundation, Inc., priority 2001, dated 2003).

pIC50: −log10 of the molar value. Some results are limits rather than exact numbers.

This experiment concerns HCT116. Nature of the experiment: In Vitro cytotoxicity measured by the cell colony formation assay. It is filed as cell-based. Particulars: Homo sapiens, HCT-116; 72 h drug incubation, colonies counted after 7 days; concentration producing 50% inhibition of colony formation; read-out: IN VITRO ID 50 (nm) HCT116. The procedure: In Vitro cytotoxicity measured by the cell colony formation assay
Four hundred cells (HCT116) were plated in 60 mm Petri dishes containing 2.7 mL of medium (modified McCoy's 5a medium containing 10% fetal bovine serum and 100 units/mL penicillin and […] streptomycin). The cells were incubated in a CO2 incubator at 37 °C for 5 h for attachment to the bottom of Petri dishes. The compounds identified in Example 2 were made up fresh in medium at ten times the final concentration, and then 0.3 mL of this stock solution was added to the 2.7 mL of medium in the dish. The cells were then incubated with drugs for 72 h at 37 ° C. At the end of incubation the drug-containing media were decanted, the dishes were rinsed with 4 mL of Hank's Balance Salt Solution (HBSS), 5 mL of fresh medium was added, and the dishes were returned to the incubator for colony formation. The cell colonies were counted using a colony counter after incubation for 7 days. Cell survival was calculated and the values of ID50 (the drug concentration producing 50% inhibition of colony formation) were determined for each tested compound.

For `CCCC(=O)OC1CC2OCC2(OC(C)=O)C2C(OC(=O)c3ccccc3)C3(O)CC(OC(=O)C(O)C(NC(=O)OCC(C)C)c4ccsc4)C(C)=C(C(O)C(=O)C12C)C3(C)C` (stereo not shown) [Compound 4600], the pIC50 is > 8.00.

On to `CCCC(=O)OC1CC2OCC2(OC(C)=O)C2C(OC(=O)c3ccccc3)C3(O)CC(OC(=O)C(O)C(NC(=O)OCC(C)C)c4ccco4)C(C)=C(C(O)C(=O)C12C)C3(C)C` (stereo not shown) [Compound 4616], for which the pIC50 is > 9.00.

In the case of `CCC(=O)O[C@H]1C[C@H]2OC[C@@]2(OC(C)=O)[C@H]2[C@H](OC(=O)c3ccccc3)[C@]3(O)C[C@H](OC(=O)[C@H](O)[C@@H](NC(=O)OCC(C)C)c4ccoc4)C(C)=C([C@@H](O)C(=O)[C@]12C)C3(C)C` [Compound 4787], the pIC50 is > 8.00.

As to `CCCC(=O)O[C@H]1C[C@H]2OC[C@@]2(OC(C)=O)[C@H]2[C@H](OC(=O)c3ccccc3)[C@]3(O)C[C@H](OC(=O)[C@H](O)[C@@H](NC(=O)OCC(C)C)c4ccoc4)C(C)=C([C@@H](O)C(=O)[C@]12C)C3(C)C` [Compound 4828], the pIC50 was > 8.00.

Take `C/C=C/C(=O)N[C@@H](c1ccoc1)[C@@H](O)C(=O)O[C@H]1C[C@@]2(O)[C@@H](OC(=O)c3ccccc3)[C@@H]3[C@]4(OC(C)=O)CO[C@@H]4C[C@H](OC(=O)CC)[C@@]3(C)C(=O)[C@H](O)C(=C1C)C2(C)C` [Compound 4898]: the pIC50 was > 9.00.

Consider `C/C=C/C(=O)N[C@@H](c1ccoc1)[C@@H](O)C(=O)O[C@H]1C[C@@]2(O)[C@@H](OC(=O)c3ccccc3)[C@@H]3[C@]4(OC(C)=O)CO[C@@H]4C[C@H](OC(=O)CCC)[C@@]3(C)C(=O)[C@H](O)C(=C1C)C2(C)C` [Compound 4939], for which the pIC50 was > 9.00.

Take `CCC(=O)O[C@H]1C[C@H]2OC[C@@]2(OC(C)=O)[C@H]2[C@H](OC(=O)c3ccccc3)[C@]3(O)C[C@H](OC(=O)[C@H](O)[C@@H](NC(=O)OC(C)(C)C)C4CC4)C(C)=C([C@@H](O)C(=O)[C@]12C)C3(C)C` [Compound 5070]: the pIC50 was > 8.00.

Turning to `CCCC(=O)O[C@H]1C[C@H]2OC[C@@]2(OC(C)=O)[C@H]2[C@H](OC(=O)c3ccccc3)[C@]3(O)C[C@H](OC(=O)[C@H](O)[C@@H](NC(=O)OC(C)(C)C)C4CC4)C(C)=C([C@@H](O)C(=O)[C@]12C)C3(C)C` [Compound 5080], the pIC50 is > 9.00.

On to `CCC(=O)O[C@H]1C[C@H]2OC[C@@]2(OC(C)=O)[C@H]2[C@H](OC(=O)c3ccccc3)[C@]3(O)C[C@H](OC(=O)[C@H](O)[C@H](C=C(C)C)NC(=O)OCC(C)C)C(C)=C([C@@H](O)C(=O)[C@]12C)C3(C)C` [Compound 5121], for which the pIC50 is 7.68.

Take `CCCC(=O)O[C@H]1C[C@H]2OC[C@@]2(OC(C)=O)[C@H]2[C@H](OC(=O)c3ccccc3)[C@]3(O)C[C@H](OC(=O)[C@H](O)[C@H](C=C(C)C)NC(=O)OCC(C)C)C(C)=C([C@@H](O)C(=O)[C@]12C)C3(C)C` [Compound 5131]: the pIC50 is > 8.00.

Turning to `CCC(=O)O[C@H]1C[C@H]2OC[C@@]2(OC(C)=O)[C@H]2[C@H](OC(=O)c3ccccc3)[C@]3(O)C[C@H](OC(=O)[C@H](O)[C@@H](NC(=O)OCC(C)C)C4CC4)C(C)=C([C@@H](O)C(=O)[C@]12C)C3(C)C` [Compound 5191], the pIC50 is > 8.00.

In the case of `CCCC(=O)O[C@H]1C[C@H]2OC[C@@]2(OC(C)=O)[C@H]2[C@H](OC(=O)c3ccccc3)[C@]3(O)C[C@H](OC(=O)[C@H](O)[C@@H](NC(=O)OCC(C)C)C4CC4)C(C)=C([C@@H](O)C(=O)[C@]12C)C3(C)C` [Compound 5202], the pIC50 is > 8.00.

With `CC(=O)O[C@@]12CO[C@@H]1C[C@H](OC(=O)C(C)C)[C@@]1(C)C(=O)[C@H](O)C3=C(C)[C@@H](OC(=O)[C@H](O)[C@@H](NC(=O)C(C)C)c4ccco4)C[C@@](O)([C@@H](OC(=O)c4ccccc4)[C@H]21)C3(C)C` [Compound 6121], the pIC50 is > 8.00.

On to `C/C=C/C(=O)N[C@@H](c1ccco1)[C@@H](O)C(=O)O[C@H]1C[C@@]2(O)[C@@H](OC(=O)c3ccccc3)[C@@H]3[C@]4(OC(C)=O)CO[C@@H]4C[C@H](OC(=O)C(C)C)[C@@]3(C)C(=O)[C@H](O)C(=C1C)C2(C)C` [Compound 6202], for which the pIC50 was > 9.00.

`CCC(=O)O[C@H]1C[C@H]2OC[C@@]2(OC(C)=O)[C@H]2[C@H](OC(=O)c3ccccc3)[C@]3(O)C[C@H](OC(=O)[C@H](O)[C@@H](NC(=O)OC(C)(C)CC)c4ccco4)C(C)=C([C@@H](O)C(=O)[C@]12C)C3(C)C` [Compound 6212]: the pIC50 was > 9.00.

For the compound `CCC(C)(C)OC(=O)N[C@@H](c1ccco1)[C@@H](O)C(=O)O[C@H]1C[C@@]2(O)[C@@H](OC(=O)c3ccccc3)[C@@H]3[C@]4(OC(C)=O)CO[C@@H]4C[C@H](OC(=O)C(C)C)[C@@]3(C)C(=O)[C@H](O)C(=C1C)C2(C)C` [Compound 6252], the pIC50 was > 9.00.

Consider `CCCC(=O)O[C@H]1C[C@H]2OC[C@@]2(OC(C)=O)[C@H]2[C@H](OC(=O)c3ccccc3)[C@]3(O)C[C@H](OC(=O)[C@H](O)[C@@H](NC(=O)OC(C)(C)CC)c4ccco4)C(C)=C([C@@H](O)C(=O)[C@]12C)C3(C)C` [Compound 6272], for which the pIC50 is > 9.00.

For the compound `CCC(C)(C)OC(=O)N[C@@H](c1ccco1)[C@@H](O)C(=O)O[C@H]1C[C@@]2(O)[C@@H](OC(=O)c3ccccc3)[C@@H]3[C@]4(OC(C)=O)CO[C@@H]4C[C@H](OC(=O)CC(C)C)[C@@]3(C)C(=O)[C@H](O)C(=C1C)C2(C)C` [Compound 6282], the pIC50 is > 8.00.

As to `CC(=O)O[C@@]12CO[C@@H]1C[C@H](OC(=O)C(C)C)[C@@]1(C)C(=O)[C@H](O)C3=C(C)[C@@H](OC(=O)[C@H](O)[C@@H](NC(=O)OC(C)(C)C)c4cccs4)C[C@@](O)([C@@H](OC(=O)c4ccccc4)[C@H]21)C3(C)C` [Compound 6333], the pIC50 was > 9.00.

As for `CCCCC(=O)O[C@H]1C[C@H]2OC[C@@]2(OC(C)=O)[C@H]2[C@H](OC(=O)c3ccccc3)[C@]3(O)C[C@H](OC(=O)[C@H](O)[C@@H](NC(=O)OC(C)(C)CC)c4ccco4)C(C)=C([C@@H](O)C(=O)[C@]12C)C3(C)C` [Compound 6343], the pIC50 was > 8.00.

As for `CCC(=O)O[C@H]1C[C@H]2OC[C@@]2(OC(C)=O)[C@H]2[C@H](OC(=O)c3ccccc3)[C@]3(O)C[C@H](OC(=O)[C@H](O)[C@@H](NC(=O)OC(C)(C)C)c4nccs4)C(C)=C([C@@H](O)C(=O)[C@]12C)C3(C)C` [Compound 6363], the pIC50 is > 8.00.

With `C/C=C/C(=O)O[C@H]1C[C@H]2OC[C@@]2(OC(C)=O)[C@H]2[C@H](OC(=O)c3ccccc3)[C@]3(O)C[C@H](OC(=O)[C@H](O)[C@@H](NC(=O)OC(C)(C)C)c4cccs4)C(C)=C([C@@H](O)C(=O)[C@]12C)C3(C)C` [Compound 6686], the pIC50 was > 9.00.
